Measured values as given in patent US20230201158A1, “PHARMACEUTICAL COMPOSITION CAPABLE OF INHIBITING REPLICATION OF CORONAVIRUS” (MAHIDOL UNIVERSITY, priority 2020, published 2023).
Like-named read-outs stand apart in the source and are kept apart here.

Tests used:
[1] = test system: SARS-CoV-2; test: Antiviral activity test, immunofluorescence high-content imaging, post-infection treatment; type: cell-based
[2] = Cytotoxicity test by MTT assay; type: cell-based, African green monkey (Cercopithecus aethiops); settings: African green monkey (Cercopithecus aethiops), Vero E6 cells (kidney epithelial cells, ATCC #C1008), read-out: 50% cytotoxic concentration (CC50)
Procedure: (§1) According to the present disclosure, Vero E6 cells, African green monkey (Cercopithecus aethiops) kidney epithelial cells (ATCC #C1008), were used for the antiviral screening. The cells were grown in Dulbecco's Modified Eagle Medium (DMEM) (Gibco, USA) with 10% fetal bovine serum (FBS) (Gibco, USA). For Vero cells (African green monkey epithelial cells), these cells were cultured in Minimum Essential Medium (MEM) (Gibco, USA) supplemented with 10% FBS and L-glutamine (Gibco, USA). All cultures were grown at 37° C. in 5% CO2 atmosphere and used in the experiments described in the following examples.
(§2) For Cytotoxicity Test by using MTT assay, the Vero E6 cells were cultured in 96-well plates with 10,000 cells per well and kept in an incubator for 24 hours. Then, the cells were incubated with the two active compounds from the B. rotunda extract, Panduratin A and Pinostrobin, in the incubator for 48 hours. When the given time was completed, 100 uL of […] MTT solvent was added and cells were incubated in the incubator for another 3 hours. MTT solvent was removed and 100 uL DMSO was added. Light absorbance was measured at 570 nm by a microplate reader, and 50% cytotoxicity concentration (CC50) was calculated for each replicate.

[3] = test system: Vero E6 cells; test: Cytotoxicity test by MTT assay; type: cell-based, African green monkey (Cercopithecus aethiops); settings: 48 h, read-out: 50% cytotoxic concentration (CC50)
Procedure: as §1, §2

[4] = test system: SARS-CoV-2; test: Plaque assay of viral output, post-infection treatment; type: cell-based; settings: FIG. 6
Procedure: Furthermore, the viral output of SARS-CoV-2 in the present disclosure was reported as the infectious titers that were determined by plaque assay. In brief, Vero cell monolayer was seeded into 6-well plate 24 hours before the infection. The cells were inoculated with a serial dilution of the virus and incubated for viral adsorption for 1 hour at 37° C. Then, the cells were overlaid with 3 mL/well of overlay medium containing MEM supplemented with 5% FBS and 1% agarose. To allow plaque to develop, the culture was incubated at 37° C. in 5% CO2 for 3 days. After that, plaque phenotypes were visualized by staining with 0.33% Neutral Red solution (Sigma, USA) for 5 hrs. Plaque numbers were counted and calculated as plaque-forming unit (PFU) per milliliter (mL).

[5] = test system: SARS-CoV-2; test: Anti-SARS-CoV-2 effect at the pre-entry phase, high-content imaging; type: cell-based; settings: pre-incubated with virus 1 h, adsorption 2 h on Vero E6, washed, 48 h
[6] = test system: SARS-CoV-2; test: Plaque assay of viral output, pre-entry phase; type: cell-based; settings: 50 μM, FIG. 9
[7] = test system: SARS-CoV-2; type: cell-based
[8] = test system: Vero E6 cells; settings: read-out: CC50, pre-entry phase, pre-entry condition

| SMILES | IC50 ([1]; Severe acute respiratory syndrome coronavirus 2, Vero C1008, read-out: 50% inhibition concentration (IC50), given in ug/mL beside the uM value) | CC50 at 48 h [2] | IC50 ([1]; Vero E6 cells infected 2 h, then treated 48 h (post-infection), read-out: 50% inhibition concentration (IC50)) | CC50 [3] | Inhibition of coronavirus replication in plaque assay (result in words) [4] | IC50 [5] | Suppression of the infectious virion production [6] | Virus titer (reduced in) ([7]; 72 h, 5 μM, vehicle 4.5 log PFU/mL) | Reduction of virus titers (result in words) ([7]; primary human alveolar cells, FIG. 10) | CC50 [8] | IC50 ([1]; Severe acute respiratory syndrome coronavirus 2, Vero C1008, read-out: 50% inhibition concentration (IC50)) | Virus titer (reduced in) ([7]; 72 h, 25 μM, vehicle 4.5 log PFU/mL) | Virus titer ([7]; 72 h, 50 μM, vehicle 4.5 log PFU/mL) |
| --- | --- | --- | --- | --- | --- | --- | --- | --- | --- | --- | --- | --- | --- |
| CCN(CCO)CCCC(C)Nc1ccnc2cc(Cl)ccc12 (centres unmarked) [Hydroxychloroquine, reference compound] | 1.71 µg/mL | > 100 µM |  |  |  |  |  |  |  |  |  |  |  |
| COc1cc(O)c(C(=O)[C@@H]2[C@H](CC=C(C)C)C(C)=CC[C@H]2c2ccccc2)c(O)c1 [Panduratin A] |  |  | 0.81 µM | 14.7 µM | significantly lower than that of Hydroxychloroquine | 5.3 µM | absolutely suppressed | 3 log PFU/mL | reduced virus titers in a dose-dependent manner | 43.5 µM |  |  |  |
| COc1cc(O)c2c(c1)O[C@H](c1ccccc1)CC2=O [Pinostrobin] |  | > 100 µM |  |  |  |  |  |  |  |  | 0.44 µM | 3 log PFU/mL | 2.0 log PFU/mL |
